Measurements reported in PubChem BioAssay AID330 (DTP/NCI, 2004).
Values joined by “and” are separate entries in the source; they are usually repeats but may differ in a detail not shown here. Identical values can stand only once. Inconclusive results and toxic doses are left out.

Tested on: P388 leukemia ip, CD2F1 mice, survival T/C
Assay: NCI In Vivo Anticancer Drug Screen. Data for tumor model P388 Leukemia (intraperitoneal) in CD2F1 (CDF1) mice
Settings: endpoint: median survival time, higher = longer survival
Outline: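 Mice carrying the transplanted tumor received test compound or vehicle. Survival was recorded in each group, and the value is the treated-group measurement divided by that of the vehicle-treated control group.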

[1] = dose: 60.0 mg/kg/injection, schedule: Q01DX005 (ip), vehicle: saline with Tween-80
[2] = dose: 120.0 mg/kg/injection, schedule: Q01DX005 (ip), vehicle: saline with Tween-80
[3] = dose: 240.0 mg/kg/injection, schedule: Q01DX005 (ip), vehicle: saline with Tween-80
[4] = dose: 25.0 mg/kg/injection, schedule: Q01DX009 (ip), vehicle: saline with Tween-80
[5] = dose: 100.0 mg/kg/injection, schedule: Q01DX009 (ip), vehicle: saline with Tween-80
[6] = dose: 50.0 mg/kg/injection, schedule: Q01DX005 (ip), vehicle: saline with Tween-80
[7] = dose: 100.0 mg/kg/injection, schedule: Q01DX005 (ip), vehicle: saline with Tween-80
[8] = dose: 200.0 mg/kg/injection, schedule: Q01DX005 (ip), vehicle: saline with Tween-80

Compound: CCCCCCCCCCCCCCCC[N+](C)(C)CCSc1ccccc1
- T/C (dose: 1.56 mg/kg/injection, schedule: Q01DX009 (ip), vehicle: distilled water + alcohol): 107 % of control and 108 % of control and 111 % of control
- T/C (dose: 3.12 mg/kg/injection, schedule: Q01DX009 (ip), vehicle: distilled water + alcohol): 110 % of control (2×) and 122 % of control
- T/C (dose: 12.5 mg/kg/injection, schedule: Q01DX009 (ip), vehicle: distilled water + alcohol): 98 % of control

Compound: CC(C)(C(N=Cc1ccccc1)c1ccccc1)[N+](=O)[O-] (centres undefined)
- T/C [1]: 100 % of control
- T/C [2]: 98 % of control
- T/C [3]: 99 % of control

Compound: CCC(C)/[N+]([O-])=N\O (centres undefined)
- T/C (dose: 3.0 mg/kg/injection, schedule: Q01DX005 (ip), vehicle: Klucel (hydroxypropylcellulose) (HPC)): 98 % of control
- T/C (dose: 6.0 mg/kg/injection, schedule: Q01DX005 (ip), vehicle: Klucel (hydroxypropylcellulose) (HPC)): 91 % of control
- T/C (dose: 12.0 mg/kg/injection, schedule: Q01DX005 (ip), vehicle: Klucel (hydroxypropylcellulose) (HPC)): 100 % of control
- T/C (dose: 24.0 mg/kg/injection, schedule: Q01DX005 (ip), vehicle: Klucel (hydroxypropylcellulose) (HPC)): 97 % of control

Compound: COc1cc(C(=O)CC(=O)Cc2ccc3ccccc3n2)cc(OC)c1OC
- T/C (dose: 0.93 mg/kg/injection, schedule: Q01DX005 (ip), vehicle: saline with Tween-80): 102 % of control
- T/C (dose: 1.88 mg/kg/injection, schedule: Q01DX005 (ip), vehicle: saline with Tween-80): 103 % of control
- T/C (dose: 3.75 mg/kg/injection, schedule: Q01DX005 (ip), vehicle: saline with Tween-80): 98 % of control
- T/C [2]: 90 % of control
- T/C [3]: 97 % of control

Compound: Cc1c2[nH]c(C(=O)O)cc(=O)c2cc2c(=O)cc(C(=O)O)[nH]c12
- T/C [4]: 100 % of control
- T/C (dose: 50.0 mg/kg/injection, schedule: Q01DX009 (ip), vehicle: saline with Tween-80): 99 % of control
- T/C [5]: 94 % of control

Compound: Nc1nc(N)c2cc(CNc3ccc(C(=O)NC(CC(=O)O)CC(=O)O)cc3)ccc2n1
- T/C (dose: 12.5 mg/kg/injection, schedule: Q01DX009 (ip), vehicle: saline with Tween-80): 203 % of control
- T/C [4]: 226 % of control
- T/C (dose: 100.0 mg/kg/injection, schedule: Q01DX009 (ip), vehicle: saline sonified): 168 % of control
- T/C [5]: 99 % of control
- T/C (dose: 100.0 mg/kg/injection, schedule: Q04DX003 (ip), vehicle: saline sonified): 181 % of control
- T/C (dose: 200.0 mg/kg/injection, schedule: Q01DX009 (ip), vehicle: saline sonified): 204 % of control
- T/C (dose: 200.0 mg/kg/injection, schedule: Q01DX009 (ip), vehicle: saline with Tween-80): 87 % of control
- T/C (dose: 200.0 mg/kg/injection, schedule: Q04DX003 (ip), vehicle: saline sonified): 150 % of control
- T/C (dose: 400.0 mg/kg/injection, schedule: Q01DX009 (ip), vehicle: saline sonified): 159 % of control
- T/C (dose: 400.0 mg/kg/injection, schedule: Q04DX003 (ip), vehicle: saline sonified): 113 % of control

Compound: BrCc1ccccc1C[P+](c1ccccc1)(c1ccccc1)c1ccccc1
- T/C (dose: 1.5 mg/kg/injection, schedule: Q01DX009 (ip), vehicle: saline): 113 % of control
- T/C (dose: 3.13 mg/kg/injection, schedule: Q01DX009 (ip), vehicle: saline): 104 % of control

Compound: CN(C)CCOc1ccccc1NC1=C(Cl)C(=O)C(Nc2ccccc2OCCN(C)C)=C(Cl)C1=O
- T/C (dose: 3.12 mg/kg/injection, schedule: Q01DX005 (ip), vehicle: saline): 96 % of control and 97 % of control
- T/C (dose: 6.25 mg/kg/injection, schedule: Q01DX005 (ip), vehicle: saline): 105 % of control and 106 % of control and 98 % of control
- T/C (dose: 12.5 mg/kg/injection, schedule: Q01DX005 (ip), vehicle: saline): 110 % of control and 114 % of control and 116 % of control
- T/C (dose: 25.0 mg/kg/injection, schedule: Q01DX005 (ip), vehicle: saline): 105 % of control and 117 % of control and 121 % of control

Compound: CCCCN(CCCC)CCNc1ccc(C)c2sc3ccccc3c(=O)c12
- T/C (dose: 12.5 mg/kg/injection, schedule: Q01DX009 (ip), vehicle: saline): 100 % of control
- T/C (dose: 25.0 mg/kg/injection, schedule: Q01DX009 (ip), vehicle: saline): 102 % of control
- T/C (dose: 50.0 mg/kg/injection, schedule: Q01DX009 (ip), vehicle: saline): 102 % of control
- T/C (dose: 100.0 mg/kg/injection, schedule: Q01DX009 (ip), vehicle: saline): 100 % of control

Compound: O=C1c2ccccc2CCC12OC2c1ccc([N+](=O)[O-])cc1 (centres undefined)
- T/C (dose: 25.0 mg/kg/injection, schedule: Q01DX005 (ip), vehicle: saline with Tween-80): 100 % of control
- T/C [6]: 106 % of control
- T/C [7]: 110 % of control
- T/C [8]: 106 % of control

Compound: O=[N+]([O-])c1ccc(OCC#CCOc2ccc([N+](=O)[O-])c(C(F)(F)F)c2)cc1C(F)(F)F
- T/C (dose: 50.0 mg/kg/injection, schedule: Q01DX009 (ip), vehicle: other): 105 % of control
- T/C (dose: 100.0 mg/kg/injection, schedule: Q01DX009 (ip), vehicle: other): 104 % of control
- T/C (dose: 200.0 mg/kg/injection, schedule: Q01DX009 (ip), vehicle: other): 102 % of control

Compound: C=CCN(CC=C)c1ncnc2[nH]ncc12
- T/C (dose: 100.0 mg/kg/injection, schedule: Q04DX003 (ip), vehicle: saline with Tween-80): 100 % of control
- T/C (dose: 200.0 mg/kg/injection, schedule: Q04DX003 (ip), vehicle: saline with Tween-80): 100 % of control
- T/C (dose: 400.0 mg/kg/injection, schedule: Q04DX003 (ip), vehicle: saline with Tween-80): 100 % of control

Compound: O=C(O)CC(Sc1ccc(Cl)cc1)C(=O)Nc1ccccc1 (centres undefined)
- T/C [1]: 99 % of control
- T/C [2]: 95 % of control
- T/C [3]: 98 % of control

Compound: Cc1nsc2[nH]c(=O)n(Nc3ccc(O)cc3)c(=O)c12
- T/C [7]: 174 % of control and 178 % of control
- T/C [8]: 180 % of control

Compound: CCCCNC(C)C1(O)Cc2c(O)c3c(c(O)c2C(OC2CC(N)C(O)C(C)O2)C1)C(=O)c1c(OC)cccc1C3=O (centres undefined)
- T/C (dose: 0.62 mg/kg/injection, schedule: Q01DX009 (ip), vehicle: water): 111 % of control
- T/C (dose: 10.0 mg/kg/injection, schedule: Q01DX009 (ip), vehicle: water): 158 % of control and 161 % of control
- T/C (dose: 20.0 mg/kg/injection, schedule: Q01DX009 (ip), vehicle: water): 172 % of control and 181 % of control
- T/C (dose: 40.0 mg/kg/injection, schedule: Q01DX009 (ip), vehicle: water): 224 % of control
- T/C (dose: 80.0 mg/kg/injection, schedule: Q01DX009 (ip), vehicle: water): 218 % of control

Compound: CCOC(=O)/C=C(/C)SC1=CC(=O)C=CC1=O
- T/C [6]: 92 % of control
- T/C [7]: 92 % of control
- T/C [8]: 100 % of control

Compound: CC1CCOn2c1nc1ccccc1c2=O (centres undefined)
- T/C (dose: 50.0 mg/kg/injection, schedule: Q01DX009 (ip), vehicle: Klucel (hydroxypropylcellulose) (HPC)): 97 % of control
- T/C (dose: 100.0 mg/kg/injection, schedule: Q01DX009 (ip), vehicle: Klucel (hydroxypropylcellulose) (HPC)): 102 % of control
- T/C (dose: 200.0 mg/kg/injection, schedule: Q01DX009 (ip), vehicle: Klucel (hydroxypropylcellulose) (HPC)): 113 % of control

Compound: CCC1C(OC)=CC2(CC)CC1(OC)OC2=O (centres undefined)
- T/C [1]: 97 % of control
- T/C [2]: 98 % of control
- T/C [3]: 102 % of control

Compound: Cc1c(COC(=O)NC(C)C)c(COC(=O)NC(C)C)c2c3ccccc3c3ccccc3n12
- T/C (dose: 12.5 mg/kg/injection, schedule: Q01DX009 (ip), vehicle: distilled water + Tween-80): 180 % of control
- T/C (dose: 25.0 mg/kg/injection, schedule: Q01DX009 (ip), vehicle: distilled water + Tween-80): 173 % of control
- T/C (dose: 50.0 mg/kg/injection, schedule: Q01DX009 (ip), vehicle: distilled water + Tween-80): 110 % of control
- T/C (dose: 100.0 mg/kg/injection, schedule: Q01DX009 (ip), vehicle: distilled water + Tween-80): 88 % of control

Compound: NC(CS)=NCC1C2CC3CC(C2)CC1C3 (centres undefined)
- T/C (dose: 0.78 mg/kg/injection, schedule: Q01DX009 (ip), vehicle: Klucel (hydroxypropylcellulose) (HPC)): 100 % of control
- T/C (dose: 1.56 mg/kg/injection, schedule: Q01DX009 (ip), vehicle: Klucel (hydroxypropylcellulose) (HPC)): 100 % of control
- T/C (dose: 3.12 mg/kg/injection, schedule: Q01DX009 (ip), vehicle: Klucel (hydroxypropylcellulose) (HPC)): 100 % of control and 91 % of control
- T/C (dose: 6.25 mg/kg/injection, schedule: Q01DX009 (ip), vehicle: Klucel (hydroxypropylcellulose) (HPC)): 104 % of control

Compound: CCC[CH2][Sn]([CH2]CCC)([CH2]CCC)[CH2]CC[N+](C)(C)C.CS(=O)(=O)[O-]
- T/C (dose: 0.78 mg/kg/injection, schedule: Q01DX009 (ip), vehicle: saline): 100 % of control
- T/C (dose: 1.56 mg/kg/injection, schedule: Q01DX009 (ip), vehicle: saline): 101 % of control
- T/C (dose: 3.12 mg/kg/injection, schedule: Q01DX009 (ip), vehicle: saline): 98 % of control

Compound: CSc1cc(C)c(C#N)c(SC)n1
- T/C [6]: 92 % of control
- T/C [7]: 89 % of control
- T/C [8]: 99 % of control

Compound: CC1(C)N=C(Oc2ccc(Cl)cc2Cl)NC(=S)N1
- T/C [1]: 95 % of control
- T/C [2]: 97 % of control
- T/C [3]: 95 % of control
